Article PMC8158254, “Anion inhibition studies of the α-carbonic anhydrases from Neisseria gonorrhoeae” (Journal of Enzyme Inhibition and Medicinal Chemistry, 2021)

Each molecule was assayed against T1, NgCA (Neisseria gonorrhoeae, UniProt Q50940) (assay: biochemical). Conditions: not given.
T1 construct: gene cah
T1 sequence (Q50940 27-252): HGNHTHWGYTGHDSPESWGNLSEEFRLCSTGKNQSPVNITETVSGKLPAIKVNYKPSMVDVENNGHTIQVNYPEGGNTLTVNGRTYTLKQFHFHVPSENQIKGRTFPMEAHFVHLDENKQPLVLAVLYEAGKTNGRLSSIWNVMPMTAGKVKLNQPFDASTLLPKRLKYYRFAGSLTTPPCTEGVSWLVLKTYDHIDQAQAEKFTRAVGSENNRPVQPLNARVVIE

Structure (SMILES)	Ki [µM]
N#CS [NCS^−]	920
O=P(O)(O)OP(=O)(O)O [P2O7^2-]	4900
O=S(=O)(O)O [SO4^2-]	830
I [I^−]	9600

Same assay, conditions: read-out: NgCA

Structure (SMILES)	Ki [µM]
O=NO [NO2^−]	590
[O]=[Ru](=[O])(=[O])[OH] [RuO4^−]	1900
NS(N)(=O)=O [NH2SO2NH2]	58
[O]=[V]([OH])([OH])[O][V](=[O])([OH])[OH] [V2O7^2-]	2800
O=[Te](=O)(O)O [TeO4^2-]	760
S [HS^−]	550
OB(O)c1ccccc1 [PhB(OH)2]	150
O=S(=O)(O)C(F)(F)F [CF3SO3^−]	5700
O=S(=O)(O)NS(=O)(=O)O [NH(SO3)2^2-]	250
N#C[SeH] [SeCN^−]	660
O=S(O)O [HSO3^−]	660
NS(=O)(=O)O [NH2SO3H]	24
N#CO [NCO^−]	430
O=S(=O)(O)OOS(=O)(=O)O [S2O8^2-]	790
O=[N+]([O-])O [NO3^−]	850
Cl [Cl^−]	4800
Br [Br^−]	4000
O=[Se](=O)(O)O [SeO4^2-]	870
[O-][Cl+3]([O-])([O-])O [ClO4^−]	> 100000
S=C(S)S [CS3^2-]	88
[O]=[Re](=[O])(=[O])[OH] [ReO4^−]	960
CCN(CC)C(=S)S [EtNCS2^−]	5.1
O=S(=O)(O)F [FSO3^−]	610
F [F^−]	8300

Same assay, conditions: sodium salt; CO2 substrate, 10 mM Hepes pH 7.4, 10 mM NaClO4, 15 min preincubation at room temperature; read-out: hCA I

Structure (SMILES)	Ki [µM]
F[P-](F)(F)(F)(F)F [PF6^−]	> 100000
